# Laboratory results as given in US7148249B2, “Indolinones substituted by heterocycles, the preparation thereof and their use as medicaments” (Boehringer Ingelheim Pharma GmbH & Co. KG, priority 2002, dated 2006).
# Counter-ions that a name gives are not always drawn.
# Test system: not given
# Test: not given
# Details: not given
row,melting point [°C],SMILES
1,248 to 250,"CCNCc1ccc(N/C(=C2\C(=O)Nc3cc(Cl)ccc32)c2ccc3c(c2)OCO3)cc1 (as salt: salt) [Example 8.0, 6-chloro-3-(Z)-{1-[4-(ethylaminomethyl)-phenylamino]-1-(3,4-methylenedioxyphenyl)-methylene}-2-indolinone]"
2,226 to 228,"CCNCc1ccc(N/C(=C2\C(=O)Nc3cc(F)ccc32)c2ccc3c(c2)ncn3C)cc1 (as salt: salt) [Example 11, 6-fluoro-3-(Z)-{1-[4-(ethylaminomethyl)-phenylamino]-1-(1-methylbenzimidazol-5-yl)-methylene}-2-indolinone]"

# Test system: Human umbilical endothelial cells (HUVEC)
# Test: Inhibition of VEGF165-stimulated HUVEC proliferation (3H-thymidine incorporation)
# Assay type: cell-based
# Details: Homo sapiens; HUVEC proliferation stimulated with 5 ng/ml VEGF165 and 10 μg/ml heparin; 76 h incubation + 16 h 3H-thymidine
# Procedure: Human umbilical endothelial cells (HUVEC) were cultivated in IMDM (Gibco BRL), supplemented with 10% foetal calf serum (FBS) (Sigma), 50 μM of β-mercaptoethanol (Fluka), standard antibiotics, 15 μg/ml of endothelial cell growth factor (ECGS, Collaborative Biomedical Products) and 100 μg/ml of heparin (Sigma) on gelatine-coated culture dishes (0.2% gelatine, Sigma) at 37° C., under 5% CO2 in a water-saturated atmosphere.
# In order to investigate the inhibitory activity of the compounds according to the invention the cells were “starved” for 16 hours, i.e. kept in culture medium without growth factors (ECGS+heparin). The cells were detached from the culture dishes using trypsin/EDTA and washed once in serum-containing medium. Then they were seeded out in amounts of 2.5×10^3 cells per well.
# The proliferation of the cells was stimulated with 5 ng/ml of VEGF165 (vascular endothelial growth factor; H. Weich, GBF Braunschweig) and 10 μg/ml of heparin. As a control, 6 wells in each dish were not stimulated.
# The compounds according to the invention were dissolved in 100% dimethylsulphoxide and added to the cultures in various dilutions as triple measurements, the maximum dimethylsulphoxide concentration being 0.3%.
# The cells were incubated for 76 hours at 37° C., then for a further 16 hours ^3H-thymidine (0.1 μCi/well, Amersham) was added in order to determine the DNA synthesis. Then the radioactively labelled cells were immobilised on filter mats and the radioactivity incorporated was measured in a β-counter. In order to determine the inhibitory activity of the compounds according to the invention the mean value of the non-stimulated cells was subtracted from the mean value of the factor-stimulated cells (in the presence or absence of the compounds according to the invention).
# The relative cell proliferation was calculated as a percentage of the control (HUVEC without inhibitor) and the concentration of active substance which inhibits the proliferation of the cells by 50% (IC50) was determined.
row,SMILES,IC50 [nM]
1,"CCN(C)Cc1ccc(N/C(=C2\C(=O)Nc3cc(Cl)ccc32)c2ccc3c(c2)OCO3)cc1 [(c), 3-(Z)-{1-[4-(N-ethyl-N-methyl-aminomethyl)-phenylamino]-1-(3,4-methylenedioxy-phenyl)-methylene}-6-chloro-2-indolinone]",2
2,"CN(C)CCC(=O)N(C)c1ccc(N/C(=C2\C(=O)Nc3cc(F)ccc32)c2ccc3c(c2)OCCO3)cc1 [(d), 3-(Z)-{1-[4-(N-methyl-N-{2-(dimethylamino)-ethyl-carbonyl}-amino)-phenylamino]-1-(3,4-ethylenedioxyphenyl)-methylene}-6-fluoro-2-indolinone]",3
3,"Cn1cnc2cc(/C(Nc3ccc(Cn4cncn4)cc3)=C3/C(=O)Nc4cc(F)ccc43)ccc21 [(e), 3-(Z)-{1-[4-(1,2,4-triazol-1-yl-methyl)-phenylamino]-1-(1-methyl-benzimidazol-5-yl)-methylene}-6-fluoro-2-indolinone]",16
4,"CN(C)Cc1ccc(N/C(=C2\C(=O)Nc3cc(Cl)ccc32)c2ccc3c(c2)OCCO3)cc1 [(g), 3-(Z)-{1-[4-(dimethylaminomethyl)-phenylamino]-1-(3,4-ethylenedioxyphenyl)-methylene}-6-chloro-2-indolinone]",9
5,"CN(C)CCN(c1ccc(N/C(=C2\C(=O)Nc3cc(Cl)ccc32)c2ccc3c(c2)OCCO3)cc1)S(C)(=O)=O [(h), 3-(Z)-{1-(4-[N-methanesulphonyl-N-(2-dimethylaminoethyl)-amino]-phenylamino)-1-(3,4-ethylenedioxyphenyl)-methylene}-6-chloro-2-indolinone]",3
6,"COC(=O)c1ccc2c(c1)NC(=O)/C2=C(\Nc1ccc(CN(C)C)cc1)c1ccc2c(c1)OCCO2 [(i), 3-(Z)-{1-[4-(dimethylaminomethyl)-phenylamino]-1-(3,4-ethylenedioxyphenyl)-methylene}-6-methoxycarbonyl-2-indolinone]",0.5
7,"COC(=O)c1ccc2c(c1)NC(=O)/C2=C(\Nc1ccc(N(C)C(=O)CN2CCN(C)CC2)cc1)c1ccc2c(c1)OCCO2 [(j), 3-(Z)-{1-(4-[N-methyl-N-(4-methylpiperazin-1-yl-methylcarbonyl)-amino]-phenyl-amino)-1-(3,4-ethylenedioxyphenyl)-methylene}-6-methoxycarbonyl-2-indolinone]",0.2
8,"CC(=O)N(CCN(C)C)c1ccc(N/C(=C2\C(=O)Nc3cc(F)ccc32)c2ccc3c(c2)OCCO3)cc1 [(k), 3-(Z)-{1-(4-[N-acetyl-N-(2-dimethylaminoethyl)-amino]-phenylamino)-1-(3,4-ethylenedioxyphenyl)-methylene}-6-fluoro-2-indolinone]",0.7
9,"CC(=O)N(CCCN(C)C)c1ccc(N/C(=C2\C(=O)Nc3cc(Cl)ccc32)c2ccc3c(c2)OCCO3)cc1 [(m), 3-(Z)-{1-(4-[N-acetyl-N-(3-dimethylaminopropyl)-amino]-phenylamino)-1-(3,4-ethylenedioxyphenyl)-methylene}-6-chloro-2-indolinone]",0.3
10,"CCC(=O)N(CCCN(C)C)c1ccc(N/C(=C2\C(=O)Nc3cc(Cl)ccc32)c2ccc3c(c2)OCCO3)cc1 [(n), 3-(Z)-{1-(4-[N-propionyl-N-(3-dimethylaminopropyl)-amino]-phenylamino)-1-(3,4-ethylenedioxyphenyl)-methylene}-6-chloro-2-indolinone]",1
11,"CCC(=O)N(CCN(C)C)c1ccc(N/C(=C2\C(=O)Nc3cc(Cl)ccc32)c2ccc3c(c2)OCCO3)cc1 [(o), 3-(Z)-{1-(4-[N-propionyl-N-(2-dimethylaminoethyl)-amino]-phenylamino)-1-(3,4-ethylenedioxyphenyl)-methylene}-6-chloro-2-indolinone]",1
12,"CC(=O)N(CCN(C)C)c1ccc(N/C(=C2\C(=O)Nc3cc(Cl)ccc32)c2ccc3c(c2)OCCO3)cc1 [(p), 3-(Z)-{1-(4-[N-acetyl-N-(2-dimethylaminoethyl)-amino]-phenylamino)-1-(3,4-ethylenedioxyphenyl)-methylene}-6-chloro-2-indolinone]",2
13,"CN1CCN(Cc2ccc(N/C(=C3\C(=O)Nc4cc(Cl)ccc43)c3ccc4c(c3)OCO4)cc2)CC1 [(q), 3-(Z)-{1-(4-[4-methylpiperazin-1-yl-methyl]-phenylamino)-1-(3,4-methylenedioxy-phenyl)-methylene}-6-chloro-2-indolinone]",2
14,"COC(=O)c1ccc2c(c1)NC(=O)/C2=C(\Nc1ccc(N(CCN(C)C)S(C)(=O)=O)cc1)c1ccc2c(c1)OCCO2 [(r), 3-(Z)-{1-(4-[N-methanesulphonyl-N-(2-dimethylaminoethyl)-amino]-phenylamino)-1-(3,4-ethylenedioxyphenyl)-methylene}-6-methoxycarbonyl-2-indolinone]",0.2
15,"COC(=O)c1ccc2c(c1)NC(=O)/C2=C(\Nc1ccc(CN2CCCC2)cc1)c1ccc2c(c1)OCCO2 [(s), 3-(Z)-{1-(4-[pyrrolidin-1-yl-methyl]-phenylamino)-1-(3,4-ethylenedioxyphenyl)-methylene}-6-methoxycarbonyl-2-indolinone]",0.6
16,"COC(=O)c1ccc2c(c1)NC(=O)/C2=C(\Nc1ccc(N(C)C(=O)CN(C)C)cc1)c1ccc2c(c1)OCCO2 [(t), 3-(Z)-{1-(4-[N-methyl-N-(dimethylaminomethylcarbonyl)-amino]-phenylamino)-1-(3,4-ethylenedioxyphenyl)-methylene}-6-methoxycarbonyl-2-indolinone]",0.6
17,"COC(=O)c1ccc2c(c1)NC(=O)/C2=C(\Nc1ccc(CN(C)C)cc1)c1ccc2c(c1)OCO2 [(w), 3-(Z)-{1-(4-[dimethylamino-methyl]-phenylamino)-1-(3,4-methylenedioxyphenyl)-methylene}-6-methoxycarbonyl-2-indolinone]",0.5
18,"CCN(CC)Cc1ccc(N/C(=C2\C(=O)Nc3cc(C(=O)OC)ccc32)c2ccc3c(c2)OCO3)cc1 [(x), 3-(Z)-{1-(4-[diethylamino-methyl]-phenylamino)-1-(3,4-methylenedioxyphenyl)-methylene}-6-methoxycarbonyl-2-indolinone]",1
19,"CN(C)C(=O)c1ccc(N/C(=C2\C(=O)Nc3cc(F)ccc32)c2ccc3c(c2)ncn3C)cc1 [(y), 3-(Z)-{1-[4-(dimethylaminocarbonyl)-phenylamino]-1-(1-methyl-benzimidazol-5-yl)-methylene}-6-fluoro-2-indolinone]",14
20,"CCC(=O)N(CCCN(C)C)c1ccc(N/C(=C2\C(=O)Nc3cc(F)ccc32)c2ccc3c(c2)OCCO3)cc1 [(z), 3-(Z)-{1-(4-[N-propionyl-N-(3-dimethylaminopropyl)-amino]-phenylamino)-1-(3,4-ethylenedioxyphenyl)-methylene}-6-fluoro-2-indolinone]",0.5
